US20230218606A1, “USE OF 4-AMINOQUINOLINE COMPOUND IN TREATMENT OF CORONAVIRUS INFECTION” (priority 2020, published 2023)
Where two headings read alike, the source gives them in different places.

Columns and labels:
SARS-CoV-2 [1] = assay: microbe, parasite or virus in culture; assay type: cell-based
SARS-CoV-2 [2] = assay: Example 3: co-localization of SARS-CoV-2 virus particles with early endosomes or endolysosomes (immunofluorescence); assay type: cell-based; details: 50 µM drug, veroE6 cells, MOI of 10, 90 min at 37° C.
Description: (at MOI of 10); • 3) the veroE6 cells were washed twice with PBS (purchased from Gibco, Catalog No. C10010500BT) to remove unbound virus particles, freshly pre-warmed MEM culture medium containing 2% FBS was added, and then the veroE6 cells were incubated at 37° C. for 90 min; • 4) the cells were fixed, and the immunofluorescence staining of cells was performed by using anti-virus NP protein antibody (red) (preserved by Wuhan Institute of Virology, Chinese Academy of Sciences) and anti-early endosomal protein EEA antibody (green) (purchased from Cell Signaling Technology, Catalog No. 48453) or anti-lysosomal protein LAMP antibody (green) (purchased from Cell Signaling Technology company, Catalog No. 3243); the nuclei were stained with Hoechst (blue) (purchased from Invitrogen company, Catalog No. H21492); • 5) quantitative analysis of co-localization of virus particles and endosomes of the cells in each group was performed, and co-localization rate was calculated.

Vero-E6 cells = details: Example 1, all test concentrations
Description: (§1) The cytotoxicity test of drugs was carried out by using CCK-8 kit (Beyotime). […] The original medium in the 96-well plate was discarded, 100 µL of the drug-containing MEM medium was taken and added to the cells, and three replicate wells were set for each concentration. A vehicle control (adding DMSO and medium to cells in wells, without adding drug) and a blank control (adding DMSO and medium to the wells, without cells) were set up. After the drug was added, the cells were incubated at 37° C. for 48 hours. • ③ 20 µL of CCK-8 solution (Beyotime) was added to the well to be tested, mixed gently without generating bubbles, and incubated subsequently at 37° C. for 2 hours. OD450 was read on a microplate reader (purchased from Molecular Devices, model: SpectraMax M5), and the reading was substituted into the following formula to calculate cell viability: • [formula] • Wherein, A was the reading of the microplate reader.

[3] = test system: Zika virus protease NS2B-NS3; details: read-out: inhibitory constant Ki; cited from earlier work
in vitro = details: African green monkey
Description: as §1

DENV-2 = details: cited from earlier work
ZIKV = details: pregnant mice, 40 mg/kg/day intraperitoneally from first day after ZIKV infection, compared to PBS; cited from earlier work

For `CCN(CC)CCCC(C)Nc1ccnc2cc(Cl)ccc12` (stereo not drawn) [chloroquine phosphate], the “inhibition of replication of SARS-CoV-2 virus genome in the infected supernatant” value (SARS-CoV-2 [1]; Example 1, at 50 µM, 16.67 µM and 5.56 µM) was “could effectively inhibit the replication”, the EC50 (SARS-CoV-2 [1]; Severe acute respiratory syndrome coronavirus 2, Vero C1008, 48 h, read-out: half-maximal effective concentration (EC50)) was 1.13 µM and the “co-localization rate of virus particles and early endosomes (EES)” value (SARS-CoV-2 [2]) was 35.3%. For the same compound, the “co-localization rate of virus particles and endolysosomes (ELs)” value (SARS-CoV-2 [2]) was 2.4% and the “toxic effect on cells (cell viability)” value (Vero-E6 cells) was “no toxic effect on cells at all concentrations”.

In the case of `CCN(CCO)CCCC(C)Nc1ccnc2cc(Cl)ccc12` (stereo not drawn) [hydroxychloroquine, 2-[[4-[(7-chloroquinolin-4-yl)amino]pentyl]ethylamino]-ethanol], the Ki [3] is listed as 92.3 ± 11.9 µM, the CC50 at 48 h (in vitro) is listed as greater than 250 µM and the “co-localization rate of virus particles and early endosomes (EES)” value (SARS-CoV-2 [2]) is listed as 29.2%. For the same compound, the “co-localization rate of virus particles and endolysosomes (ELs)” value (SARS-CoV-2 [2]) was 0.03%, the “reduction of DENV-2 virus titer” value (DENV-2; A549 cell line, 50 to 80 µM) was 100 times and the IC50 (DENV-2; A549 cells, read-out: IC50 for DENV-2 infected cells) was 10.1 ± 1.6 µM. The IC50 (DENV-2; Hepa1-6 cells, read-out: IC50 for DENV-2 infected cells) was 12.9 ± 4.2 µM, the IC50 (DENV-2; J774A.1 macrophages, read-out: IC50, inhibition of DENV-2 infection of macrophages) was 9.7 ± 1.3 µM and the IC50 (DENV-2; WS-1 cells, read-out: IC50 for DENV-2 infected cells) was 12.9 ± 1.9 µM. The “level of ZIKV infection in placenta” value (ZIKV) was “lower level of ZIKV infection”.
